{"source": "patent US20210204549A1", "about": "“BACILLUS AMYLOLIQUEFACIENS AND NEONICOTINOIDS MIXTURES AND METHODS OF USE THEREOF” (Valent U.S.A. LLC, priority 2020, published 2021)", "system": "tomato spotted wilt virus (\"TSWV\")", "experiment": "Greenhouse test of in-furrow treatments on peanut plants infected with tomato spotted wilt virus", "assay_type": "in vivo", "details": "peanut plants (Arachis hypogaea), furrow spray; imidacloprid 254.85 g/HA; 63 days after treatment", "method": "The following greenhouse test was conducted from May 31, 2018 to Oct. 22, 2018 in Tift County, Georgia. Peanut plants (Arachis hypogaea) were used in the test as the crop plant. 6 seeds were planted per foot per row giving 360 seeds per plot. The peanut plants were infected with tomato spotted wilt virus (“TSWV”). Furrows were sprayed with B. amyloliquefaciens strain PTA-4838, imidacloprid, fluopyram and/or Mycorrhizae consortium at the rates disclosed in Table 1 prior to seedling plating. The plants were then infected with TSWV. Number of live plants were counted at 63 days after treatment. Percent TSWV infection was calculated as percent of row feet infected per plot. All data was analyzed using Bartlett's test and with p value of […] for determining significance of the results.", "data": [{"smiles": "O=[N+]([O-])NC1=NCCN1Cc1ccc(Cl)nc1", "note": "[Imidacloprid, imidacloprid]", "values": [{"measurement": "% Control", "value": 96.4, "unit": "a %"}]}]}
